Data: patent publication US10485814B2, “Nicotinamide riboside analogs and pharmaceutical compositions and uses thereof” (GlaxoSmithKline Intellectual Property (No. 2) Limited, priority 2014, dated 2019)
“Also recorded” adds a separate entry of the source.

What was measured:
[1] = tested on: Reconstructed human epidermis (EpiDerm, EPI-200); test: UVB-induced inflammation mediators in reconstructed epidermal equivalents; format: cell-based; conditions: topical 1 hr pre-treatment, NRH 0.1% or niacinamide 3%; UVB 150 mJ/cm^2; media 6 hr post irradiation
Text: Solar Ultraviolet (UV) light exposure on skin causes photoaging, sunburn, DNA damages and carcinogenesis. UV radiation (UVR) also results in inflammation, which can be measured in vitro by pro-inflammatory mediators, e.g., TNF-α, IL-8. The in vitro reconstructed human epidermis (RHE) model is used to evaluate the anti-inflammatory effect of NRH.
Reconstructed human epidermis (EpiDerm, EPI-200, made of normal human epidermal keratinocytes, MatTek, Ashland, Mass.), were placed into media (EPI-100-ASY, 1.0 ml/well of 6-well plates) and incubated overnight at 37° C./5% CO2. The media was replenished with fresh culture media prior to study. NRH at 0.1% and niacinamide at 3% in vehicle (50% H2O/35% ethanol/15% propylene glycol, v/v/v) were applied topically at 6 μl and then gently spread onto the skin equivalents (˜20 rotations) using the rubber side of a plunger of 1 ml syringe. Vehicle was served as an untreated control. After 1 hr pre-treatment with NRH, niacinamide, or vehicle control, the EpiDerm tissues were transferred to a sterile 6-well plate containing 1 ml of DPBS per well and then exposed to UVB at 150 mJ/cm^2. The Newport Solar Simulator System (Power unit 69920, and Lamp 91192-1000, Newport Corporate, Irvine, Calif.) was used as the UVB emitter to achieve a UVB irradiation of 150 mJ/cm^2. Measurement of the irradiation was taken using an ILT-1400 Handheld, Portable Radiometer/Photometer (International Light Technologies, Inc., Peabody, Mass.) with a UVB detector (SEL240/T2ACT5, 235-307 nm, International Light Technologies, Inc.). After UVB irradiation, EpiDerm tissues were transferred back to the 6-well plate containing media and incubated at 37° C./5% CO2 for 6 hours. At the end of the incubation (6 hr post UVB irradiation), culture media were collected for the measurement of IL-8, and TNF-α concentration by MagPix (Millipore, HCYTOMAG-60K).

[2] = tested on: HaCaT cells (a human keratinocyte cell line); test: Intracellular NAD measurement in HaCaT cells (ADPR cyclase enzymatic assay, absorbance 405 nm); format: cell-based
Experimental: HaCaT cells (AddexBio Technologies, San Diego, Calif., Passage 16-19) were grown in Medium DMEM/GlutMax (Life technologies, Grand Island, N.Y.) supplemented with 10% FBS (Life technologies) and Non-essential amino acids (NEAA, Life technologies) and then seeded in 12-well plates (Corning, Tewksbury, Mass.) with a density at 2×10^5 cells per well and 2 ml of culture medium in each well for overnight.
Stock solution of dihydronicotinamide riboside (NRH, GSK3008320A, GSK, RTP, NC) was prepared in ethanol at 100 mM (25.6 mg/ml) and stored at −20° C. Cells were treated with different concentrations of NRH for 3 hrs, washed twice with PBS containing 5 mM EDTA, and then subject to Nicotinamide adenine dinucleotide (NAD) measurement. In brief, acetonitrile (ACN) lysis buffer (Ammonium Acetate (50 mM) and 90% acetonitrile) was added to each well (200 μl/well) to lyse the cells at RT for 5-10 mins by gently rotating on a culture plate shaker at a low speed. Enzyme master mix (300 μM of 5-Amino-(3,4′-bipyridin)-6(1H)-one (Inamrinone) (Sigma-Aldrich), a substrate for ADP ribosyl cyclase (ADPR cyclase)) and 30 nM ADPR Cyclase (Sigma, St. Louis, Mo.), 7.5 μM of N-(2-fluoro-4-(methylsulfonyl)phenyl)-2-methyl-6-(thiazol-5-yl)isonicotinamide (a CD38 inhibitor) in 75 mM HEPES pH7 buffer (Life Technologies)) was added to the lysed cells (400 μl of enzyme master mix/well). Enzymatic reaction was incubated at RT for ˜30 min. At the end of incubation, the supernatant (200 μl) of the reaction solution from each well was transferred to each well of a 96-well plate and absorbance was read twice in the 96-well plate at 405 nm using a plate reader (Spectra Maxplus, Molecular Devices, Sunnyvale, Calif.). A mixture of enzyme master mix and ACN extraction solution at 2:1 ratio was used as a blank reference. NAD (Sigma) was used as a positive control.
HaCaT cells were grown as described in example 23 in the regular cell culture DMEM medium as described earlier or in the Epilife medium without nacinamide (Life Technologies). Cells were treated with different concentrations of NRH or niacinamide (NIA, DSM nutritional products) for 3 hrs, washed twice with PBS containing 5 mM EDTA, and then subject to Nicotinamide adenine dinucleotide (NAD) measurement as described in example 23. A mixture of enzyme master mix and ACN extraction solution at 2:1 ratio for a blank reference. NAD (Sigma) was used as a positive control. […] Both the CD38 inhibitor and Niacinamide increased NAD in the HaCaT cells cultured in the Vit B3 depleted culture medium, and the induction of NAD by niacinamide was dose-dependent (solid bars). However, the induction of NAD by niacinamide (highest at ˜1.5 fold) was low compared to those by NRH. Therefore, NRH is a stronger NAD inducer compared to a CD38 inhibitor or Niacinamide.
HaCaT cells were grown in regular culture media as described in example 1 and seeded in 12-well plates with density at 2×10^5 cells per well and 1 ml of culture medium in each well. NRH stock solution was prepared in ethanol at 100 mM (25.6 mg/ml) and stored at −20° C. Stock solutions of NRH esters were made at 50 mM in DMSO (see FIG. 9B for compound info). Cells were treated with NRH esters and NRH at 150 μM for 6 and 16 hrs, washed twice with PB S containing 5 mM EDTA, and then subject to Nicotinamide adenine dinucleotide (NAD) measurement as described in example 23.
HaCaT cells were grown in regular culture media as described above and seeded in 12-well plates with density at 2×10^5 cells per well and 1 ml of culture medium in each well. NRH stock solution was prepared in ethanol at 100 mM (25.6 mg/ml) and stored at −20° C. NRH (200 μM) was used as a positive control. Because of the possible solubility issue related to NRH monoC16, fatty acid-free bovine serum albumin (defatted BSA, Sigma) was used as a carrier for the compound. NRH monoC16 stock solution (100×) was complexed with defatted BSA ([…]) prior to the treatment, resulting in a NRH monoC16 stock solution (10 ×). […]

[3] = Storage in a 93% RH salt chamber; format: physicochemical; conditions: approximately 22° C., approximately 2¼ hours
Experimental: XRD indicated the sample was amorphous (FIG. 16). A sample of NRH was stored in a 93% RH (relative humidity) salt chamber (at approximately 22° C.) for approximately 2¼ hours. The sample had deliquesced and there was no evidence of crystallization based on XRD analysis.

With `NC(=O)C1=CN([C@@H]2O[C@H](CO)[C@@H](O)[C@H]2O)C=CC1` [NRH, dihydronicotinamide riboside] the “UVB-induced IL-8” value [1] was “inhibited; also recorded: reduces”, the “UVB-induced TNF-α” value [1] was “inhibited; also recorded: reduces” and the NAD levels elevation ([2]; HaCaT in DMEM medium with Vit B3, 450 μM, 3 hrs) was roughly 6 fold. The NAD level ([2]; HaCaT keratinocytes, different concentrations, 3 hrs, absorbance at 405 nm) was “dose-dependently increases NAD; also recorded: dose-dependently increases NAD^+”, the NAD boosting activity ([2]; HaCaT, 150 μM, 6 and 16 hrs) was “consistently showed strong activity on NAD elevation” and the “behaviour on storage at high humidity” value [3] was “deliquesced”.
